Earlier results on 1 substance are cited in US20070136825A1, “Fusion proteins useful for detecting analytes” (priority 2001, published 2007).

By Kd is commonly meant the constant that tells how readily two partners part at equilibrium.

For this data set the following is noted: glucose; GGBP alone; Zukin et al.; read-out: Kd Binding protein, glucose.

For “GGBP: glucose/galactose binding protein (mglB, E. coli), SEQ ID NO:4”, the Kd was 210 nM.
